Experiments:
[1] = tested on: renal IRI; assay: renal ischemia reperfusion injury (IRI) in mice, 9-cis retinoic acid given 4 h prior; assay type: in vivo; settings: for BUN (serum blood urea nitrogen) / serum creatinine / tubular / renal injury score / apoptotic cells in kidney (TUNEL) / neutrophil infiltration in kidney / CXCL2 gene expression level in kidney: 10 mg/kg 4 h prior to IRI; for BUN (serum blood urea nitrogen) / serum creatinine: 24 h after IRI; for BUN (serum blood urea nitrogen) / serum creatinine / tubular / renal injury score / apoptotic cells in kidney (TUNEL) / neutrophil infiltration in kidney / CXCL2 gene expression level in kidney / Nor-1 and Nurr-1 levels in kidney / Nur77 gene expression level in kidney: vs vehicle; for BUN (serum blood urea nitrogen): P<0.0001; for serum creatinine: P<0.002; for apoptotic cells in kidney (TUNEL) / neutrophil infiltration in kidney: P<0.001; for CXCL2 gene expression level in kidney: P<0.02; for Nor-1 and Nurr-1 levels in kidney / Nur77 gene expression level in kidney: 10 mg/kg body weight 4 h prior to IRI, 24 hours after injury, qPCR; for localization pattern of Nur77: 24 h post IRI, immunochemistry
Protocol: Male mice of age 8-10 weeks were used in this study. Animals were anesthetized using xylazine and ketamine and kept on 37° C. warming pads. The kidneys were exposed by flank incision and both kidney pedicles were clamped for 45 minutes using non-traumatic microaneurysm clamps (Roboz, Rockville, Md.). Reperfusion was confirmed visually and the incision was sutured. Body temperature of the animals was maintained at 37° C. throughout the procedure.
9-cis retinoic acid in DMSO was administered to animals at a dose of 10 mg/kg body weight, 4 h prior to the IRI procedure. The final concentration of DMSO was 25% (v/v). Control animals received 25% (v/v) DMSO.
Kidneys from animals subjected to IRI were harvested. Transverse sections of the kidneys were either snap frozen in OCT or fixed in 10% formalin and processed for paraffin embedded sections. Renal morphology was assessed by PAS staining (Periodic acid-Schiff reagent). Neutrophil infiltration was assessed by staining formalin fixed paraffin embedded (FFPE) sections with anti-Ly6G (BD). Infiltrating neutrophils were counted in 3 independent HPFs (400×) per section per animal and represented as mean±SEM. Nur77 staining was carried out on FFPE sections after antigen retrievel using anti-mouse Nur77 antibody (Ebioscience). Endogenous mouse Ig was blocked using M.O.M kit from vector labs.
Kidney cell apoptosis was assessed by TUNEL staining using ApopTag® Peroxidase In Situ Apoptosis Detection Kit (Millipore). The apoptotic index was calculated as percentage of dead cells in 3 independent 400×HPF per section per animal by, counting both stained nuclei and total nuclei.
Serum plasma was collected 24 h after ischemia reperfusion and stored at −80 deg C. until further processing. Serum creatinine was quantified using QuantiChrom™ Creatinine Assay Kit (Bioassays systems). Serum blood urea nitrogen levels were measured using Infinity Urea liquid stable reagent (Thermo fisher).
(§1) Kidney tissues were snap frozen and stored at −80 deg C. until processing. The tissues were homogenized and total RNA was prepared using RNeasy kit (Qiagen). DNA contamination was eliminated by DNase digestion. The reverse transcribed cDNA was subjected to qPCR using a Sybr green based detection system (SA Bioscience). Relative levels of mRNA was normalized to GAPDH levels and quantified based on 2e-deltaCT method.

[2] = tested on: primary cultures of renal proximal tubule epithelial cells (RPTECs); assay: in vitro IRI model: primary RPTEC cultures, mineral oil overlay induced hypoxia followed by reperfusion, qPCR; assay type: cell-based, mice; settings: for CCL20 induction: Nur77 knockout RPTECs; for Nur77 levels (induction after ischemia-reperfusion): RPTECs, hypoxia by mineral oil overlay then reperfusion; for Nur77 levels (induction after ischemia-reperfusion) / Induction of Nr4a family members (Nor-1, Nurr1): vs vehicle; for Induction of Nr4a family members (Nor-1, Nurr1): both wild type and Nur77 knockout RPTEC cultures
Protocol: as §1
Kidneys from 4-5 weeks old mice were harvested after perfusion with sterile PBS. Cortex was separated and minced into ˜1 mm3 pieces and digested using collagenase and soybean trypsin inhibitor for 30 min and 37 degC. The digested mix was spun down and filtered through 200 uM filter followed by a 70 uM filter. The tubules that are retained on the top of the 70 uM filter were collected and cultured in Renal life cell growth medium (Lifeline cell technology) on collagen coated plates. After 7 days of culturing, the cells were used for experiments. The purity of the culture was ascertained by staining for cytokeratin (Anti-cytokeratin antibody: Sigma). To induce ischemia reperfusion injury, confluent monolayer of RPTECs was overlayed with mineral oil for 1 h, followed by reperfusion with complete medium.
Retinoic acid can antagonize Nur77 function by inhibiting its transcriptional induction, DNA binding and nuclear export^17,18. RXRs heterodimerize with Nur77 in response to cell death stimuli, promoting nuclear export and causing Bcl-2 dependent cytochrome c release and apoptosis. Ligand bound RXR inhibits Nur77 function either by retaining it in the nucleus or by inhibiting its transcription by an AP-1 dependent mechanism^18. Since Nur77 deficient mice were protected from renal IRI, whether pharmacologic antagonism of Nur77 by retinoic acid could be used to protect kidneys from acute injury was assessed. To determine whether retinoids could regulate Nur77-dependent signaling in renal epithelia, primary cultures of renal proximal tubule epithelial cells (RPTECs) were generated from either wild type or Nur77 knockout mice. RPTECs were treated with either vehicle or 9-cis-retinoic acid, and subjected to mineral oil overlay induced hypoxia, followed by reperfusion.

[3] = Nur77+/+ (wild type) RPTECs, listed as 9-cis-RA

Q: How did the “BUN (serum blood urea nitrogen)” value [1] turn out when CC1=C(/C=C/C(C)=C\C=C\C(C)=C\C(=O)O)C(C)(C)CCC1 [9-cis-retinoic acid] was run?
A: reduced

Q: What about the “BUN (serum blood urea nitrogen)” value ([1]; listed as 9-cis-RA) of the same molecule?
A: significantly lower

Q: And the serum creatinine [1]?
A: reduced

Q: What about the serum creatinine ([1]; listed as 9-cis-RA) of the same molecule?
A: significantly lower

Q: And the “tubular / renal injury score” value [1]?
A: improved

Q: And the “apoptotic cells in kidney (TUNEL)” value [1]?
A: significantly less

Q: What about the “neutrophil infiltration in kidney” value [1] of the same molecule?
A: much less

Q: What about the “apoptotic cells in kidney (TUNEL)” value ([1]; listed as 9-cis-RA) of the same molecule?
A: fewer apoptotic cells

Q: What about the “neutrophil infiltration in kidney” value ([1]; listed as 9-cis-RA) of the same molecule?
A: fewer

Q: What about the “CXCL2 gene expression level in kidney” value [1] of the same molecule?
A: Reduced

Q: And the “CXCL2 gene expression level in kidney” value ([1]; listed as 9-cis-RA)?
A: greatly diminished

Q: And the “tubular / renal injury score” value ([1]; listed as 9-cis-RA)?
A: less injured

Q: And the “Nor-1 and Nurr-1 levels in kidney” value [1]?
A: dramatically lower induction

Q: What about the “Nur77 gene expression level in kidney” value [1] of the same molecule?
A: dramatically lower induction

Q: And the “Nor-1 and Nurr-1 levels in kidney” value ([1]; listed as 9-cis-RA)?
A: reduced

Q: And the “Nur77 gene expression level in kidney” value ([1]; listed as 9-cis-RA)?
A: significantly diminished

Q: And the “localization pattern of Nur77” value [1]?
A: cytoplasmic

Q: And the “localization pattern of Nur77” value ([1]; listed as 9 cis-RA)?
A: unaltered

Q: And the “overall level of Nur77 protein expression in kidney (immunochemistry)” value ([1]; mice that received 9-cis-retinoic acid, after renal IRI)?
A: dramatically reduced

Q: What about the “transcript level of HIF-1 alpha” value ([1]; treatment prior to the induction of IRI) of the same molecule?
A: unchanged

Q: And the CCL20 levels ([2]; Nur77+/+ (wild type) RPTECs)?
A: very substantially reduced

Q: And the “Induction of CXCL2” value ([2]; Nur77+/+ (wild type) RPTECs)?
A: significantly attenuated

Q: And the CCL20 levels [2, 3]?
A: reduced

Q: And the “Induction of CXCL2” value [2, 3]?
A: reduced

Q: What about the CCL20 induction [2] of the same molecule?
A: no further effect

Q: And the CCL20 induction ([2]; listed as 9-cis-RA)?
A: did not substantially reduce the expression level further

Q: And the “Induction of CXCL2” value ([2]; RPTECs from Nur77 knockout kidneys)?
A: no further inhibitory effect

Q: And the “Induction of CXCL2” value ([2]; RPTECs from Nur77 knockout kidneys, listed as 9-cis-RA)?
A: did not substantially reduce the expression level further

Q: What about the “Nur77 levels (induction after ischemia-reperfusion)” value [2] of the same molecule?
A: reduced by about half

Q: And the “Nur77 levels (induction after ischemia-reperfusion)” value ([2]; listed as 9-cis-RA)?
A: attenuated the induction

Q: What about the “Induction of Nr4a family members (Nor-1, Nurr1)” value [2] of the same molecule?
A: inhibited

Q: And the “Induction of Nr4a family members (Nor-1, Nurr1)” value ([2]; listed as 9-cis-RA)?
A: attenuated the induction

Reference: patent publication US20140303251A1, “Methods Of Treating Acute Kidney Injury With Retinoic Acid” (Beth Israel Deaconess Medical Center, Inc., priority 2011, published 2014)
